Results reported in patent publication US20110306606A1, “NOVEL 2,6-SUBSTITUTED-3-NITROPYRIDINE DERIVATIVE, METHOD FOR PREPARING SAME, AND PHARMACEUTICAL COMPOSITION INCLUDING SAME” (priority 2008, published 2011).
Where “and” joins values, the source holds several entries; their conditions need not be identical. Equal values may be shown once. Read-outs that look alike come from different tables or passages of the source.

How the values were obtained:
[1] = test system: formation of osteoclasts in co-culture of bone marrow cells and osteoblasts; test: Osteoclastogenesis inhibition via co-culture system (TRAP staining); assay type: cell-based, mice; settings: 1 μM compound, 7 days co-culture, TRAP-positive multinucleated osteoclasts vs vehicle control
Description: Osteoclastogenesis inhibitory effects of the compounds of the present invention were evaluated via a co-culture system (Reference: Endocrinology 137(1996), 2187 to 2190, E. Jimi et al.). A specific experimental method is as follows.
1) Preparation of Bone Marrow Cells and Osteoblasts
Femora and tibia were aseptically dissected from 6 to 8-week-old male ddY mice to harvest bone marrow cells by a conventional method using a syringe. In brief, tissues were removed from the dissected bone, the bone ends were cut off with scissors, and the bone marrow was isolated by pushing a medium-containing syringe (23G) against the one end of the cut bone. The isolated bone marrow was subjected to repeated piston movement of a syringe such that single cells were obtained (Reference: Endocrinology 123(1988), 2600 to 2602, Takahashi et al.). After removal of red blood cells within the bone marrow, the bone marrow cells recovered by centrifugation were placed in an α-MEM supplemented with 10% fetal bovine serum (FBS), followed by counting of nucleated cells and then were immediately used for a co-culture system.
2) Osteoclastogenesis Inhibition Experiment Via Co-Culture System
As the medium used for a co-culture system, a differentiation medium with the addition of differentiation factors 1α,25-dihydroxyvitamin D3 (10^−8M) and dexamethasone (10^−8M) to a-MEM supplemented with 10% FBS was used for the induction of osteoclastogenesis. First, the compounds dissolved in dimethyl sulfoxide (DMSO) at a concentration of 1 mM were diluted to 2 μM using the above-mentioned differentiation medium. As a vehicle control group, 0.2% (v/v) DMSO was added to the medium. 100 μL/well of each medium was added to 96-well plates. In addition, the above prepared bone marrow cells and osteoblasts were plated onto 96-well plates at a density of 1×10^5 cells/50 μL/well and 3×10^3 cells/50 μL/well, respectively. The total volume/well was 200 μL and the final compound concentration was 1 μM. The control group was 0.1% DMSO. The cells were cultured with exchange of the culture media with fresh media containing differentiation factors and test materials at an interval of 2 to 3 days.
7 days after culturing of cells, the formation of multinucleated osteoclasts was confirmed by microscopic examination, the medium was removed from the wells and then the cells were fixed in a 10% phosphate-buffered formalin solution. The degree of formation of mature osteoclasts was measured taking advantage of the characteristics of osteoclasts showing a positive reaction to a tartrate-resistant acid phosphatase (TRAP) staining solution. The TRAP staining solution was prepared in a manner such that naphthol AS-MS phosphate as a substrate and a coloring agent (Fast Red Violet LB salt) were dissolved in N,N-dimethylformamide, and a 0.1N NaHCO3 buffer solution containing 50 mM of tartaric acid was added thereto. Among the TRAP-positive cells under a light microscope, multinucleated osteoclasts having 6 to 7 nuclei were regarded as mature osteoclasts.
The degree of inhibition of osteoclastogenesis was calculated according to the following equation 1. The results are summarized in Table 27 below (Experiments were carried out for 4 wells/experimental group (n=4), and the results are given in terms of mean±standard deviation)
Inhibition of osteoclastogenesis(%)=(1−numbers of osteoclasts observed in experimental group/numbers of osteoclasts observed in vehicle control group)×100(%) [Equation 1]

[2] = test system: Osteoblasts (Calvarial cells); test: Cytotoxicity test (MTT); settings: 1 μM compound, 72 hours, in comparison with vehicle control
[3] = test system: Osteoblasts (Calvarial cells); test: Alkaline phosphatase (ALP) activity in osteoblasts (Calvarial cells); assay type: cell-based, mice; settings: 1 μM compound, 3 days
Description: Differentiation and activity of osteoblasts were indirectly evaluated by measuring an ALP activity having a close relationship with osteogenesis.
Osteoblasts (Calvarial cells) prepared in Experimental Example 1 and MC3T3-E1 cells (available from RIKEN Cell Bank, Japan) were collected in α-MEM supplemented with 10% FBS, followed by cell counting. The cells were dispensed into 24-well cultureware at a density of 2×10^4 cells/well. After culturing of the cells for 24 hours, the culture media were discarded and replaced with fresh media in which test compounds were diluted to a concentration of 1 μM (1 mL/well). In addition, the vehicle control group containing 0.1% DMSO was also treated. […] When the experiment was terminated, the supernatant was removed and the cells were washed three times with cold phosphate buffer at 4°. 0.2% Triton X-100 was added to the washed cells which were then subjected to three cycles of freezing at −70° and thawing at room temperature for the complete lysis of cells. The cell extracts were pooled and centrifuged to collect the cell supernatant which was used for the measurement of ALP activity and proteins. The protein concentration was measured using a BCA assay kit (manufactured by Sigma-Aldrich). For the measurement of ALP activity, p-nitrophenylphosphate was added to the cell supernatant which was then incubated at 37° for 30 minutes, and the reaction was terminated with the addition of 50 μL of 0.2N sodium hydroxide. The standard curve was plotted at the absorbance of 405 nm using p-nitrophenol as a standard material and then the absorbance of test materials thus reacted was measured to determine the production amount of p-nitrophenol.
The ALP activity was calculated by dividing the amount of p-nitrophenol produced from each test material by the protein amount and the reaction time. Therefore, the unit of ALP activity was given in terms of p-nitrophenol/μg protein/min. The results are given in Tables 28-1 and 28-2 where the ALP activity unit of each test material was given in terms of % change through the comparison between the individual test materials and the vehicle control group.

[4] = test system: Osteoblasts (Calvarial cells); settings: ICR, mouse, 72 h, 1 μM

| SMILES | Osteoclastogenesis inhibition (%) 1 μM [1] | Cell viability (%) Calvarial cell [2] | ALP activity (1 μM, % of Control) Calvarial cell [3] | inhibition at 1 µM ([1]; Mus musculus, Osteoclast, 168 h) | Cell viability (%) Calvarial cell [4] |
| --- | --- | --- | --- | --- | --- |
| CCN(CCO)c1ccc([N+](=O)[O-])c(Nc2ccc(-c3csc(C)n3)cc2)n1 [Compound 141, 2-[4-(2-methylthiazol-4-yl)phenylamino]-6-[(N-ethyl-2-hydroxy)ethylamino]-3-nitropyridine] | 82% | 102% | 129 % of Control |  |  |
| O=[N+]([O-])c1ccc(NCc2ccncc2)nc1Nc1ccc(-c2csc(C3CCCCC3)n2)cc1 [Compound 163, 2-[4-(2-cyclohexylthiazol-4-yl)phenylamino]-6-[(4-pyridyl)methylamino]-3-nitropyridine] |  |  |  | 67% | 99% |
| CC(C)CNc1ccc([N+](=O)[O-])c(Nc2ccc(N3CCOCC3)c(F)c2)n1 [Compound 193, 2-[(3-fluoro-4-morpholino)phenylamino]-6-(isobutylamino)-3-nitropyridine] | 81% | 98% | 114 % of Control |  |  |
| CC(C)(C)Nc1ccc([N+](=O)[O-])c(Nc2ccc(N3CCOCC3)c(F)c2)n1 [Compound 199, 2-[(3-fluoro-4-morpholino)phenylamino]-6-(t-butylamino)-3-nitropyridine] | 67% | 118% | 118 % of Control |  |  |
| O=[N+]([O-])c1ccc(N2CCNCC2)nc1Nc1ccc(N2CCOCC2)c(F)c1 [Compound 201, 2-[(3-fluoro-4-morpholino)phenylamino]-6-(piperazin-1-yl)-3-nitropyridine] | 86% | 95% | 118 % of Control |  |  |
| O=[N+]([O-])c1ccc(N2CCNCC2)nc1Nc1ccc(N2CCSCC2)c(F)c1 [Compound 213, 2-[(3-fluoro-4-thiomorpholino)phenylamino]-6-(piperazin-1-yl)-3-nitropyridine] | 94% | 95% | 121 % of Control |  |  |
| CNc1ccc([N+](=O)[O-])c(Nc2ccc(N3CCNCC3)c(F)c2)n1 [Compound 215, 2-[(3-fluoro-4-piperazino)phenylamino]-6-(methylamino)-3-nitropyridine] | 91% | 104% | 125 % of Control |  |  |
| CC(C)Nc1ccc([N+](=O)[O-])c(Nc2ccc(N3CCNCC3)c(F)c2)n1 [Compound 216, 2-[(3-fluoro-4-piperazino)phenylamino]-6-(isopropylamino)-3-nitropyridine] | 93% | 92% | 112 % of Control |  |  |
| CC(C)CNc1ccc([N+](=O)[O-])c(Nc2ccc(N3CCNCC3)c(F)c2)n1 [Compound 217, 2-[(3-fluoro-4-piperazino)phenylamino]-6-(isobutylamino)-3-nitropyridine] | 94% | 92% | 119 % of Control |  |  |
| CNc1ccc([N+](=O)[O-])c(Nc2ccc(N3CCCCC3)c(F)c2)n1 [Compound 223, 2-[(3-fluoro-4-piperidino)phenylamino]-6-(methylamino)-3-nitropyridine] | 82% | 100% | 247 % of Control |  |  |
| CC(C)CNc1ccc([N+](=O)[O-])c(Nc2ccc(N3CCCCC3)c(F)c2)n1 [Compound 225, 2-[(3-fluoro-4-piperidino)phenylamino]-6-(isobutylamino)-3-nitropyridine] | 60% | 90% | 150 % of Control |  |  |
| CC1=NCCN1c1ccc([N+](=O)[O-])c(Nc2ccc(N3CCCCC3)c(F)c2)n1 [Compound 227, 2-[(3-fluoro-4-piperidino)phenylamino]-6-[(2-methyl-4,5-dihydro)imidazol-1-yl]-3-nitropyridine] | 65% | 103% | 122 % of Control |  |  |
| O=[N+]([O-])c1ccc(NCc2cccnc2)nc1Nc1ccc(N2CCCCC2)c(F)c1 [Compound 229, 2-[(3-fluoro-4-piperidino)phenylamino]-6-[(3-pyridyl)methylamino]-3-nitropyridine] | 97% | 104% and 125% | 114 % of Control |  |  |
| O=[N+]([O-])c1ccc(NCc2ccncc2)nc1Nc1ccc(N2CCCCC2)c(F)c1 [Compound 230, 2-[(3-fluoro-4-piperidino)phenylamino]-6-[(4-pyridyl)methylamino]-3-nitropyridine] | 93% | 101% | 120 % of Control |  |  |
| CC(C)(C)Nc1ccc([N+](=O)[O-])c(Nc2ccc(N3CCCCC3)c(F)c2)n1 [Compound 231, 2-[(3-fluoro-4-piperidino)phenylamino]-6-(t-butylamino)-3-nitropyridine] | 82% | 112% | 121 % of Control |  |  |
| O=[N+]([O-])c1ccc(N2CCOCC2)nc1Nc1ccc(N2CCCCC2)c(F)c1 [Compound 235, 2-[(3-fluoro-4-piperidino)phenylamino]-6-morpholino-3-nitropyridine] | 86% | 105% | 121 % of Control |  |  |
| CNc1ccc([N+](=O)[O-])c(Nc2ccc(N3CCC(O)CC3)c(F)c2)n1 [Compound 236, 2-{[3-fluoro-4-(4-hydroxypiperidino)]phenylamino}-6-(methylamino)-3-nitropyridine] | 76% | 91% | 209 % of Control |  |  |
| CN1CCN(c2ccc([N+](=O)[O-])c(Nc3ccc(N4CCC(O)CC4)c(F)c3)n2)CC1 [Compound 244, 2-{[3-fluoro-4-(4-hydroxypiperidino)]phenylamino}-6-(4-methylpiperazin-1-yl)-3-nitropyridine] | 62% | 99% | 118 % of Control |  |  |
